Measurements: patent publication US12679855B2, “Inhibitors of the enzyme enolase for precision oncology” (Board of Regents, The University of Texas System, priority 2019, dated 2026)
“Also recorded” adds a separate entry of the source. Read-outs that look alike come from different tables or passages of the source. Each block holds one molecule with its values, some of them ahead of it.

Key:
[1] = tested on: D423 (ENO1-deleted) glioma cells; assay: Cell proliferation assay (crystal violet) in ENO1-deleted glioma cells; assay type: cell-based; settings: for IC50: Glioma cell; for selectivity for ENO1-deleted cells: versus ENO1-rescued (D423 ENO1) and ENO1-intact (LN319) glioma cells
Protocol: Cell culture experiments. Cell culture experiments were conducted using the D423-MG cell line. 1p36 homozygous deletion in D423 includes the genes from CAMTAJ to SLC25A33; this includes ENO1. Isogenic ENO1 ectopically rescued lines were described previously (pCMV ENO1 5X) (Muller et al., 2012, which is incorporated by reference herein). An ENO1-intact cell line (LN319) was used as a control for sensitivity to Enolase inhibitors. Cells were routinely cultured in Dulbecco's modified Eagle's medium supplemented with 10% fetal bovine serum.
Cell proliferation assay. Cell Proliferation was determined by crystal violet staining, as previously described (Leonard et al., 2016 and Satani et al., 2016). The cell lines used were D423 (ENO1-deleted), D423 ENO1 (overexpressing ENO1) and LN319 (control). Glioma cells were seeded in 96-well plates and treated with varying concentrations of the inhibitors described above for 7 days. Cells were then washed with PBS, fixed with 10% formalin and stained with 0.05% crystal violet. Washed and dried plates were dye-extracted using 10% acetic acid, and absorbance was measured at 595 nm using Omegastar Plate Reader (BMG Labtech). To test the efficacy of the synthesized under hypoxic conditions, 1×10^4 cells were plated in 96-well plates, treated with VCY13, VCY15, VCY16, or VCY17 and incubated for 3 days in a hypoxia station (Don Whitley Scientific, Shipley, UK) set at 1% O2 and 5% CO2. Crystal violet staining was then performed as described above.
Additional Biological Data. Pro-drug inhibitor structures and corresponding IC50 values against ENO1-deleted cells are shown below in Table 2. The name and corresponding structures of all synthesized inhibitors are given in left and middle columns of each table. Pro-drug moieties in blue represent a second pro-drug leave group while those in red represent a first pro-drug leave group. Some inhibitors also contain an acetyl-protected hydroxamate, which is also a biologically labile moiety. ENO1-deleted (D423), ENO1-isogenically rescued (D423 ENO1), and ENO1-WT (LN319) cells were treated with either pro-drug inhibitor for 5 days at 21% O2, unless otherwise specified. […] IC50,D423 values at 21% O2 are given in the right columns of each table. Experiments conducted at 1% O2 (hypoxic) or 70% O2 (hyperoxic) conditions are noted, where appropriate.

[2] = tested on: D502 glioma cell line (ENO1-heterozygously deleted); assay: Enolase inhibitor sensitivity (crystal violet), ENO1-heterozygously deleted D502 cells; assay type: cell-based; settings: DMEM 10% FBS, terminal cell density by crystal violet after 7 days
Protocol: (§1) Enolase inhibitor sensitivity experiments were performed, using DMEM containing 10% FBS cell culture media. IC50 (expressed in nM) were calculated based on terminal cell density measured by crystal violet after 7 days of growth. […] Left table: POMHEX. Middle table: HEX. Right table: Ratio of sensitivity to POMHEX versus HEX for each cell line.
(§2) (FIG. 19A) ENO1-deleted (D423, red), ENO1-isogenically rescued (D423 ENO1, blue), and ENO1-WT (LN319, grey) cells were treated POMHEX in RPMI media under the same experimental conditions used for NCI-60 screening. […] IC50 (expressed in nM) were calculated based on terminal cell density measured by crystal violet.
(§3) Cell proliferation assay.

[3] = Plasma levels after IV injection of POMHEX in monkeys; assay type: in vivo, monkey; settings: after IV POMHEX, monkey 2.5 mg/kg, mouse 10 mg/kg
Protocol: (§4) FIGS. 16A-16C show the ex-vivo half-life of POMHEX in biological fluids limits its clinical utility. […] Lower levels of carboxylesterase in human blood results in a longer half-life of POMHEX. (FIG. 16B) Dramatically higher drug exposure in non-human primates as compared to mice following IV injections of POMHEX. Mice (n=3; pooled) and monkeys (n=3; pooled) were injected IV with POMHEX at 10 mg/kg and 2.5 mg/kg, respectively. […] POMHEX was undetectable (<50 nM) even at the earliest time point, in both monkey and mouse experiments; at 98 nM, POMHEX was detectable 1-minute post-injection, but at no time thereafter. […] HEX and HemiPOMHEX were not measured at concentrations higher than 10 mg/kg due to the hazards associated with the derivatization agent, trimethylsilyl-diazomethane in hexane (TMS-DAM). (FIG. 16C) Schematic of POMHEX in circulation when administered IP or IV in mice. Due to high levels of plasma carboxylesterase, a gradient decrease in POMHEX away from the site of injection is accompanied by a concurrent increase in HemiPOMHEX.

[4] = tested on: U343 glioma cell line (ENO1-heterozygously deleted); assay: Enolase inhibitor sensitivity (crystal violet), ENO1-heterozygously deleted U343 cells; assay type: cell-based; settings: DMEM 10% FBS, terminal cell density by crystal violet after 7 days
Protocol: as §1, §2, §3

[5] = Plasma and organ levels after injection of POMHEX in mice; assay type: in vivo, mouse; settings: 24 hrs. after a single intravenous injection of 10 mg/kg POMHEX
Protocol: FIGS. 3A-3D show the ex-vivo half-life of POMHEX in biological fluids may limit its clinical utility. (FIG. 3A) Ex-vivo half-life of POMHEX in biological fluids. POMHEX has a half-life of ~30 seconds in mouse plasma. The degradation may be prevented by heat inactivation or de-proteinatization with acetonitrile. […] (FIG. 3B) Plasma concentration of HEX and HemiPOMHEX following a single intravenous injection of POMHEX, as a function of time. Mice were injected IV with 10 mg/kg POMHEX and sacrificed at the indicated time points. Each data point represents a single animal. Note, POMHEX itself was below the detection limit (100 nM) even at the earliest time point. It is believed that this may not be reflective of the physiological state as separation of plasma from hematocrit is required for the measurements, which adds approximately 6 minutes of processing time during which POMHEX may be degraded to HemiPOMHEX. (FIG. 3C) The results of the same experiment but performed with an intraperitoneal injection of POMHEX, at a dose of 40 mg/kg. (FIG. 3D) Quantification of POMHEX and its metabolites in mouse organs 24 hrs. after a single intravenous injection of 10 mg/kg POMHEX.
as §4, with “Due to high levels of plasma carboxylesterase, a gradient decrease in POMHEX away from the site of injection is accompanied by a concurrent increase in HemiPOMHEX.” left out

[6] = nitroimidazole in VCY17, nitrofuran in VCY15; cited from earlier work
[7] = 120 h, ENO1-deleted (D423) cells, 5 days, 21% O2, read-out: IC50,D423
[8] = 120 h, 21% O2, 5 days where stated, read-out: IC50 against D423 (ENO1-deleted) cells
[9] = D423 cells, 1% O2 (hypoxic), read-out: IC50,D423 at 1% O2

IC50 [1, 7]: 36000 nM
SMILES: O=C1C(P(=O)(NCc2ccccc2)OCOC(=O)N2CCC(N3CCCCC3)CC2)CCCN1O (stereo not shown) [CDP9]

SMILES: CC(C)(C)C(=O)OCOP(=O)(NCc1cccc(F)c1)C1CCCN(O)C1=O (stereo not shown) [CDP12, ((((3-fluorobenzyl)amino)(1-hydroxy-2-oxopiperidin-3-yl)phosphoryl)oxy)methyl pivalate]
IC50 [1, 7]: 249 nM

SMILES: CC(C)(C)C(=O)OCOP(=O)(NCc1ccc(F)c(F)c1)C1CCCN(O)C1=O (stereo not shown) [CDP13, ((((3,4-difluorobenzyl)amino)(1-hydroxy-2-oxopiperidin-3-yl)phosphoryl)oxy)methyl pivalate]
IC50 [1, 7]: 221 nM

SMILES: CC(C)(C)C(=O)OCOP(=O)(NCc1ccc(F)cc1F)C1CCCN(O)C1=O (stereo not shown) [CDP14, ((((2,4-difluorobenzyl)amino)(1-hydroxy-2-oxopiperidin-3-yl)phosphoryl)oxy)methyl pivalate]
IC50 [1, 7]: 65 nM

SMILES: CC(C)(C)C(=O)OCOP(=O)(NCC1CCCCC1)C1CCCN(O)C1=O (stereo not shown) [CDP18, ((((Cyclohexylmethyl)amino)(1-hydroxy-2-oxopiperidin-3-yl)phosphoryl)oxy)methyl pivalate]
greater potency compared to benzylamine pro-drug (FLM37) ([1]; D423 cells): ~ 3 fold
IC50 [1, 8]: 77 nM
IC50 [1, 7]: 77 nM

SMILES: CC(C)(C)C(=O)OCOP(=O)(NCc1c(F)cccc1F)C1CCCN(O)C1=O (stereo not shown) [CDP19, ((((2,6-difluorobenzyl)amino)(1-hydroxy-2-oxopiperidin-3-yl)phosphoryl)oxy)methyl pivalate]
IC50 [1, 7]: 112 nM

SMILES: O=C1C(P(=O)(O)O)CCCN1O (stereo not shown) [HEX]
IC50 [2]: 28800 nM
half-life in monkey compared to mouse [3]: longer in monkey
IC50 [4]: 19700 nM

SMILES: CC(C)(C)C(=O)OCOP(=O)(O)C1CCCN(O)C1=O (stereo not shown) [HemiPOMHEX]
half-life in monkey compared to mouse [3]: longer in monkey
level in mouse organs [5]: below the quantification limit (BQL)

SMILES: CC(C)(C)C(=O)OCOP(=O)(NCc1ccccn1)C1CCCN(O)C1=O (stereo not shown) [KY9, (((1-hydroxy-2-oxopiperidin-3-yl)((pyridin-2-ylmethyl)amino)phosphoryl)oxy)methyl pivalate]
IC50 [1, 7]: 96 nM

IC50 [1, 8]: 38 nM
IC50 [1, 7]: 38 nM
SMILES: CC(=O)ON1CCCC(P(=O)(NCc2ccccc2)OCCSC(=O)C(C)(C)C)C1=O (stereo not shown) [VCY13, 3-((benzylamino)(2-(pivaloylthio)ethoxy)phosphoryl)-2-oxopiperidin-1-yl acetate]
selectivity for ENO1-deleted cells [1]: selective toxicity against ENO1-deleted; also recorded: dose-dependent selectivity for ENO1-deleted cells

IC50 [1, 8]: 230 nM
IC50 [1, 7]: 390 nM
IC50 [1, 9]: 97 nM
SMILES: CC(=O)ON1CCCC(P(=O)(NCc2ccccc2)OCc2ccc([N+](=O)[O-])o2)C1=O (stereo not shown) [VCY15, 3-((benzylamino)((S-nitrofuran-2-yl)methoxy)phosphoryl)-2-oxopiperidin-1-yl acetate]
difference in bioactivation from 21% to 1% O2 ([1]; taking into account HIF-1α/hypoxia-driven increase in ENO2 expression): ~ 5 fold
selectivity for ENO1-deleted cells [1]: selective toxicity against ENO1-deleted
redox potential of the nitroheterocycle [6]: −330 mV

IC50 [1, 7]: 234 nM
IC50 [1, 9]: 40 nM
SMILES: CC(=O)ON1CCCC(P(=O)(NCc2ccccc2)OCc2ccc([N+](=O)[O-])s2)C1=O (stereo not shown) [VCY16, 3-((benzylamino)((5-nitrothiophen-2-yl)methoxy)phosphoryl)-2-oxopiperidin-1-yl acetate]

SMILES: CC(C)(C)C(=O)OCOP(=O)(NCc1ccc(F)cc1)C1CCCN(O)C1=O (stereo not shown) [VCY19, ((((4-fluorobenzyl)amino)(1-hydroxy-2-oxopiperidin-3-yl)phosphoryl)oxy)methyl pivalate]
IC50 [1, 7]: 129 nM

IC50 [1, 7]: 933 nM
IC50 [1, 9]: 540 nM
SMILES: CC(=O)ON1CCCC(P(=O)(NCc2ccc(F)cc2)OCc2ccc([N+](=O)[O-])o2)C1=O (stereo not shown) [VCY22, 3-(((4-fluorobenzyl)amino)((5-nitrofuran-2-yl)methoxy)phosphoryl)-2-oxopiperidin-1-yl acetate]

IC50 [1, 7]: 5000 nM
SMILES: N#CCCOP(=O)(NCc1ccccc1)C1CCCN(O)C1=O (stereo not shown) [VCY26]

SMILES: CC(C)(C)C(=O)OCOP(=O)(NCC1CC1)C1CCCN(O)C1=O (stereo not shown) [VCY32, ((((Cyclopropylmethyl)amino)(1-hydroxy-2-oxopiperidin-3-yl)phosphoryl)oxy)methyl pivalate]
IC50 [1, 7]: 9 nM
selectivity for ENO1-deleted cells [1]: selective for ENO1-deleted cells
